In PubChem BioAssay AID248 (DTP/NCI, 2004):
Where “and” joins values, the source holds several entries; their conditions need not be identical. Equal entries are not always repeated. Inconclusive results and toxic doses are left out.

Tested on: L1210 leukemia ip in BDF1 mice, survival T/C
Experiment: NCI In Vivo Anticancer Drug Screen. Data for tumor model L1210 Leukemia (intraperitoneal) in B6D2F1 (BDF1) mice
Conditions: higher = longer survival
Procedure, shortened: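 Transplantable tumor model; survival measured in treated vs vehicle control mice. Value = treated/control.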

[1] = endpoint: mean survival time, dose: 100.0 mg/kg/injection, schedule: Q04DX003 (ip), vehicle: Klucel (hydroxypropylcellulose) (HPC)
[2] = endpoint: mean survival time, dose: 200.0 mg/kg/injection, schedule: Q04DX003 (ip), vehicle: Klucel (hydroxypropylcellulose) (HPC)
[3] = endpoint: mean survival time, dose: 400.0 mg/kg/injection, schedule: Q04DX003 (ip), vehicle: Klucel (hydroxypropylcellulose) (HPC)
[4] = endpoint: mean survival time, dose: 100.0 mg/kg/injection, schedule: Q01DX001 (ip), vehicle: saline
[5] = endpoint: mean survival time, dose: 200.0 mg/kg/injection, schedule: Q01DX001 (ip), vehicle: saline
[6] = endpoint: mean survival time, dose: 400.0 mg/kg/injection, schedule: Q01DX001 (ip), vehicle: saline
[7] = endpoint: mean survival time, dose: 100.0 mg/kg/injection, schedule: Q01DX009 (ip), vehicle: Klucel (hydroxypropylcellulose) (HPC)
[8] = endpoint: mean survival time, dose: 200.0 mg/kg/injection, schedule: Q01DX009 (ip), vehicle: Klucel (hydroxypropylcellulose) (HPC)
[9] = endpoint: mean survival time, dose: 400.0 mg/kg/injection, schedule: Q01DX009 (ip), vehicle: Klucel (hydroxypropylcellulose) (HPC)
[10] = endpoint: mean survival time, dose: 75.0 mg/kg/injection, schedule: Q01DX001 (ip), vehicle: saline
[11] = endpoint: mean survival time, dose: 150.0 mg/kg/injection, schedule: Q01DX001 (ip), vehicle: saline

In the case of `O=NN(CCCl)C(=O)NC1CCC(=O)NC1=O` (configuration not stated), the T/C (endpoint: mean survival time, dose: 0.5 mg/kg/injection, schedule: Q01DX001 (ip), vehicle: other) is reported as 104 % of control, the T/C (endpoint: mean survival time, dose: 1.0 mg/kg/injection, schedule: Q01DX001 (ip), vehicle: other) is reported as 106 % of control and the T/C (endpoint: mean survival time, dose: 2.0 mg/kg/injection, schedule: Q01DX001 (ip), vehicle: other) is reported as 118 % of control. The T/C (endpoint: mean survival time, dose: 5.5 mg/kg/injection, schedule: Q01DX001 (ip), vehicle: other) was 172 % of control, the T/C (endpoint: mean survival time, dose: 6.0 mg/kg/injection, schedule: Q01DX001 (ip), vehicle: other) was 203 % of control and the T/C (endpoint: mean survival time, dose: 8.0 mg/kg/injection, schedule: Q01DX001 (ip), vehicle: other) was 246 % of control. The T/C (endpoint: mean survival time, dose: 11.0 mg/kg/injection, schedule: Q01DX001 (ip), vehicle: other) was 300 % of control, the T/C (endpoint: mean survival time, dose: 12.0 mg/kg/injection, schedule: Q01DX001 (ip), vehicle: other) was 292 % of control and the T/C (endpoint: mean survival time, dose: 16.0 mg/kg/injection, schedule: Q01DX001 (ip), vehicle: other) was 315 % of control and 326 % of control. For the same compound, the T/C (endpoint: mean survival time, dose: 22.0 mg/kg/injection, schedule: Q01DX001 (ip), vehicle: other) was 340 % of control, the T/C (endpoint: mean survival time, dose: 24.0 mg/kg/injection, schedule: Q01DX001 (ip), vehicle: other) was 220 % of control and the T/C (endpoint: mean survival time, dose: 33.0 mg/kg/injection, schedule: Q01DX001 (ip), vehicle: other) was 340 % of control. For the same compound, the T/C (endpoint: mean survival time, dose: 36.0 mg/kg/injection, schedule: Q01DX001 (ip), vehicle: other) was 93 % of control, the T/C (endpoint: mean survival time, dose: 44.0 mg/kg/injection, schedule: Q01DX001 (ip), vehicle: other) was 295 % of control and the T/C (endpoint: median survival time, dose: 0.63 mg/kg/injection, schedule: Q01DX001 (ip), vehicle: other) was 106 % of control. The T/C (endpoint: median survival time, dose: 0.63 mg/kg/injection, schedule: Q01DX001 (ip), vehicle: saline) was 110 % of control, the T/C (endpoint: median survival time, dose: 0.63 mg/kg/injection, schedule: Q01DX001 (iv), vehicle: other) was 103 % of control and the T/C (endpoint: median survival time, dose: 0.63 mg/kg/injection, schedule: Q01DX001 (iv), vehicle: saline) was 108 % of control. The T/C (endpoint: median survival time, dose: 1.25 mg/kg/injection, schedule: Q01DX001 (ip), vehicle: other) was 116 % of control, the T/C (endpoint: median survival time, dose: 1.25 mg/kg/injection, schedule: Q01DX001 (ip), vehicle: saline) was 120 % of control and the T/C (endpoint: median survival time, dose: 1.25 mg/kg/injection, schedule: Q01DX001 (iv), vehicle: other) was 118 % of control. For the same compound, the T/C (endpoint: median survival time, dose: 1.25 mg/kg/injection, schedule: Q01DX001 (iv), vehicle: saline) was 106 % of control, the T/C (endpoint: median survival time, dose: 2.5 mg/kg/injection, schedule: Q01DX001 (iv), vehicle: other) was 122 % of control and the T/C (endpoint: median survival time, dose: 2.5 mg/kg/injection, schedule: Q01DX001 (iv), vehicle: saline) was 118 % of control. The T/C (endpoint: median survival time, dose: 5.0 mg/kg/injection, schedule: Q01DX001 (ip), vehicle: other) was 227 % of control, the T/C (endpoint: median survival time, dose: 5.0 mg/kg/injection, schedule: Q01DX001 (ip), vehicle: saline) was 193 % of control and the T/C (endpoint: median survival time, dose: 5.0 mg/kg/injection, schedule: Q01DX001 (iv), vehicle: other) was 151 % of control. For the same compound, the T/C (endpoint: median survival time, dose: 5.0 mg/kg/injection, schedule: Q01DX001 (iv), vehicle: saline) was 150 % of control, the T/C (endpoint: median survival time, dose: 10.0 mg/kg/injection, schedule: Q01DX001 (ip), vehicle: other) was 600 % of control and the T/C (endpoint: median survival time, dose: 10.0 mg/kg/injection, schedule: Q01DX001 (ip), vehicle: saline) was 598 % of control. For the same compound, the T/C (endpoint: median survival time, dose: 10.0 mg/kg/injection, schedule: Q01DX001 (iv), vehicle: other) was 290 % of control, the T/C (endpoint: median survival time, dose: 10.0 mg/kg/injection, schedule: Q01DX001 (iv), vehicle: saline) was 253 % of control and the T/C (endpoint: median survival time, dose: 20.0 mg/kg/injection, schedule: Q01DX001 (ip), vehicle: other) was 550 % of control. The T/C (endpoint: median survival time, dose: 20.0 mg/kg/injection, schedule: Q01DX001 (ip), vehicle: saline) was 596 % of control, the T/C (endpoint: median survival time, dose: 20.0 mg/kg/injection, schedule: Q01DX001 (iv), vehicle: other) was 599 % of control and the T/C (endpoint: median survival time, dose: 20.0 mg/kg/injection, schedule: Q01DX001 (iv), vehicle: saline) was 600 % of control. For the same compound, the T/C (endpoint: median survival time, dose: 40.0 mg/kg/injection, schedule: Q01DX001 (ip), vehicle: other) was 101 % of control and the T/C (endpoint: median survival time, dose: 40.0 mg/kg/injection, schedule: Q01DX001 (ip), vehicle: saline) was 104 % of control.

In the case of `COc1ccc(NC(C)=O)cc1`, the T/C (endpoint: mean survival time, dose: 100.0 mg/kg/injection, schedule: Q01DX001 (ip), vehicle: Klucel (hydroxypropylcellulose) (HPC)) is reported as 107 % of control, the T/C (endpoint: mean survival time, dose: 200.0 mg/kg/injection, schedule: Q01DX001 (ip), vehicle: Klucel (hydroxypropylcellulose) (HPC)) is reported as 100 % of control and the T/C (endpoint: mean survival time, dose: 400.0 mg/kg/injection, schedule: Q01DX001 (ip), vehicle: Klucel (hydroxypropylcellulose) (HPC)) is reported as 103 % of control.

For `Cc1ccc([I+]c2ccc(C)c(C)c2C)c(C)c1C`, the T/C (endpoint: mean survival time, dose: 2.5 mg/kg/injection, schedule: Q01DX001 (ip), vehicle: acetone) was 100 % of control, the T/C (endpoint: mean survival time, dose: 5.0 mg/kg/injection, schedule: Q01DX001 (ip), vehicle: acetone) was 102 % of control and the T/C (endpoint: mean survival time, dose: 10.0 mg/kg/injection, schedule: Q01DX001 (ip), vehicle: acetone) was 96 % of control. The T/C (endpoint: mean survival time, dose: 22.0 mg/kg/injection, schedule: Q01DX001 (ip), vehicle: acetone) was 103 % of control.

In the case of `CC(=O)OCCN1C(=O)c2ccccc2C1=O`, the T/C [1] is reported as 104 % of control, the T/C [2] is reported as 117 % of control and the T/C [3] is reported as 101 % of control.

`CCCCCC(CCCCC)c1ccccn1` was tested, and the T/C [4] was 94 % of control, the T/C [5] was 103 % of control and the T/C [6] was 100 % of control.

For `CSc1ccc(NC(=O)SCc2ccccc2)cc1`, the T/C [7] was 97 % of control, the T/C [8] was 95 % of control and the T/C [9] was 95 % of control.

With `O=C(O)c1cc(-c2ccc(Cl)cc2)nc2c(Cl)cccc12` the T/C (endpoint: mean survival time, dose: 20.0 mg/kg/injection, schedule: Q01DX009 (ip), vehicle: Klucel (hydroxypropylcellulose) (HPC)) was 95 % of control, the T/C (endpoint: mean survival time, dose: 20.0 mg/kg/injection, schedule: Q04DX003 (ip), vehicle: Klucel (hydroxypropylcellulose) (HPC)) was 107 % of control and the T/C (endpoint: mean survival time, dose: 40.0 mg/kg/injection, schedule: Q01DX009 (ip), vehicle: Klucel (hydroxypropylcellulose) (HPC)) was 103 % of control. The T/C (endpoint: mean survival time, dose: 40.0 mg/kg/injection, schedule: Q04DX003 (ip), vehicle: Klucel (hydroxypropylcellulose) (HPC)) was 100 % of control, the T/C (endpoint: mean survival time, dose: 80.0 mg/kg/injection, schedule: Q01DX009 (ip), vehicle: Klucel (hydroxypropylcellulose) (HPC)) was 108 % of control and the T/C (endpoint: mean survival time, dose: 80.0 mg/kg/injection, schedule: Q04DX003 (ip), vehicle: Klucel (hydroxypropylcellulose) (HPC)) was 97 % of control.

`CSc1nc(N)c(C(N)=O)cc1C#N` was tested, and the T/C (endpoint: mean survival time, dose: 100.0 mg/kg/injection, schedule: Q04DX003 (ip), vehicle: saline with Tween-80) was 89 % of control, the T/C (endpoint: mean survival time, dose: 200.0 mg/kg/injection, schedule: Q04DX003 (ip), vehicle: saline with Tween-80) was 89 % of control and the T/C (endpoint: mean survival time, dose: 400.0 mg/kg/injection, schedule: Q04DX003 (ip), vehicle: saline with Tween-80) was 87 % of control.

In the case of `SCc1c(Cl)c(Cl)c(Cl)c(Cl)c1Cl.[Hg]`, the T/C [1] is reported as 93 % of control, the T/C [2] is reported as 91 % of control and the T/C [3] is reported as 93 % of control.

In the case of `CCCC1=CN(Cc2ccccc2)c2ccccc2C1`, the T/C [4] is reported as 96 % of control, the T/C (endpoint: mean survival time, dose: 100.0 mg/kg/injection, schedule: Q04DX003 (ip), vehicle: saline) is reported as 97 % of control and the T/C [5] is reported as 96 % of control. The T/C (endpoint: mean survival time, dose: 200.0 mg/kg/injection, schedule: Q04DX003 (ip), vehicle: saline) was 97 % of control, the T/C [6] was 97 % of control and the T/C (endpoint: mean survival time, dose: 400.0 mg/kg/injection, schedule: Q04DX003 (ip), vehicle: saline) was 93 % of control.

In the case of `CCCN(CCC)CCCN(CCC)CCCCN(CCC)CCCN(CCC)CCC`, the T/C [4] is reported as 98 % of control.

In the case of `C=CCCCCCCCCC(=O)N/N=C/c1cccc(OC)c1OC`, the T/C (endpoint: mean survival time, dose: 100.0 mg/kg/injection, schedule: Q04DX002 (ip), vehicle: saline) is reported as 95 % of control, the T/C (endpoint: mean survival time, dose: 200.0 mg/kg/injection, schedule: Q04DX002 (ip), vehicle: saline) is reported as 103 % of control and the T/C (endpoint: mean survival time, dose: 400.0 mg/kg/injection, schedule: Q04DX002 (ip), vehicle: saline) is reported as 106 % of control.

In the case of `CCCCCCCNC(=S)NNC(=O)c1ccncc1`, the T/C [7] is reported as 97 % of control, the T/C [8] is reported as 100 % of control and the T/C [9] is reported as 100 % of control.

For `O=CN/N=C/c1ccc([N+](=O)[O-])cc1`, the T/C [10] was 92 % of control, the T/C [11] was 87 % of control and the T/C (endpoint: mean survival time, dose: 300.0 mg/kg/injection, schedule: Q01DX001 (ip), vehicle: saline) was 89 % of control.

For `c1ccc(CCc2nccc3ccccc23)cc1`, the T/C [10] was 96 % of control and the T/C [11] was 97 % of control.

For `CCOC(=O)Nc1cc(N)c2nnn(C(c3ccccc3)c3ccccc3)c2n1`, the T/C [1] was 92 % of control, the T/C [2] was 91 % of control and the T/C [3] was 91 % of control.
